Tests used:
[1] = system: renal SGLT1 and SGLT2; assay: Metabolic cage study, 24-h urinary glucose excretion; assay type: in vivo, mouse
Method: Mice were individually housed in Nalgene Metabolic Cages for Mice (product MTB-0311), and 24-h urine collections were made to determine 24-h UGE, as described previously (Powell et al. [2013a]). Some mice received a single dose of either LP-925219 or vehicle by oral gavage at 8 am immediately prior to initiating collection of 24-h urine samples; in addition, some mice received two doses of either vehicle or 60 mg/kg LP-925219 by oral gavage, with the first dose given at 8 am and the second dose given at 6 pm, nearly midway through the collection of the 24-h urine sample.
Figure 5 UGE values in mice treated with a single dose of LP-925219. After DKO, S2 KO, S1 KO, and WT littermate mice received, by a single oral gavage at 8 am, either vehicle (Veh) or LP-925219 at a dose of (A) 1 mg/kg; (B) 10 mg/kg; or (C) 60 mg/kg, the mice were placed in metabolic cages and their urine was collected over the next 24 h and analyzed for total glucose. N = 5–11 mice/group. UGE < DKO UGE: *P < 0.05, **P < 0.01, ***P < 0.001; LP-925219 UGE > Veh UGE for the same group, ^^^P < 0.001. UGE, urinary glucose excretion.
Figure 6 UGE values in mice treated with two doses of 60 mg/kg LP-925219. DKO, S2 KO, S1 KO, and WT littermate mice received, by oral gavage at 8 am and then again at 6 pm, either vehicle (Veh) or LP-925219 at a dose of 60 mg/kg. The mice were placed in metabolic cages after the first gavage and their urine was collected over the next 24 h and analyzed for total glucose. N = 6–11 mice/group. UGE < DKO UGE, ***P < 0.001; LP-925219 UGE > Veh UGE for the same group, ^^^P < 0.001. UGE, urinary glucose excretion.

[2] = target: T1, human SGLT2 (Homo sapiens, UniProt P31639); assay: 14C-AMG uptake assay, HEK293 cells expressing human SGLT2; assay type: cell-based; set-up: expressed in transfected cells; details: mean ± SD
T1 sequence (P31639 1-672): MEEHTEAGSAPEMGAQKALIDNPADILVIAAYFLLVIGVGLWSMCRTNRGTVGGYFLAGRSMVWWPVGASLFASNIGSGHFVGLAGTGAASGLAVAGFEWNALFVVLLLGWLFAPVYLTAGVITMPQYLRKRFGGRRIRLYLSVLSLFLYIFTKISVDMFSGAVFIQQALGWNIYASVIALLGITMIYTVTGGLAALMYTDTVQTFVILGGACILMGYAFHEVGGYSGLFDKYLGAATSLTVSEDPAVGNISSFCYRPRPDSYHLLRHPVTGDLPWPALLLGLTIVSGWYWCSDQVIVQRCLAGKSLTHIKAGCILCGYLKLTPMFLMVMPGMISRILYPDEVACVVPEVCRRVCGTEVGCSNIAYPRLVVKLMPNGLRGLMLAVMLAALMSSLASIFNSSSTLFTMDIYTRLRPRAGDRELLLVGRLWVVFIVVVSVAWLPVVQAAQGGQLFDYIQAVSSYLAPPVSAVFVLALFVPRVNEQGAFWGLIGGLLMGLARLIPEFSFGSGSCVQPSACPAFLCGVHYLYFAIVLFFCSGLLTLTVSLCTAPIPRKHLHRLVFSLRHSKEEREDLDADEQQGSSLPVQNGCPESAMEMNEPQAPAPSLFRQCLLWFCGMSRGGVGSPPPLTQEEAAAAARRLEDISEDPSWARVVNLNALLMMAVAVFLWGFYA
Text: (§1) Methods for generating cell lines expressing mouse, rat, and dog SGLT1 and SGLT2 are published (Powell et al. [2013b], [2014]). Full-length coding sequence of human SGLT1 (NP_000334) and human SGLT2 (NP_003032.1) with an HA-tag at the N-terminus were cloned into the mammalian expression vector pIRESpuro2 (Clontech, Mountain View, CA). HEK293 cells (ATCC, Manassas, VA) were transfected with the pIRESpuro2 vector containing human SGLT1 or SGLT2 and bulk stable cell lines were selected in the presence of 0.5 μg/mL of puromycin.
(§2) Cell lines expressing SGLT1 or SGLT2 were plated into poly-D-lysine-coated 384-well plates, and culture overnight in cell growth medium. Cells were washed, and then incubated in uptake buffer ([…], […] KCl, […] CaCl2, […] MgCl2, […] HEPES/Tris, 1 mg/mL of bovine serum albumin, pH7.4) containing [^14C]α-methylglucopyranoside (^14C-AMG), a nonmetabolizable glucose analog specific for sodium-dependent glucose transporters (Wright and Turk [2004]). The inhibition of SGLT1 or SGLT2 was determined by measuring SGLT1/2-mediated ^14C-AMG uptake in the presence of increasing compound concentrations of LP-925219. […] Standard sigmoidal dose–response model curves were fitted, and the IC50 value was computed as the LP-925219 concentration that inhibited the ^14C-AMG uptake by 50% between baseline and maximum uptake.

[3] = target: T2, human SGLT1 (Homo sapiens, UniProt P13866); assay: 14C-AMG uptake assay, HEK293 cells expressing human SGLT1; assay type: cell-based; set-up: expressed in transfected cells; details: mean ± SD
T2 sequence (P13866 1-664): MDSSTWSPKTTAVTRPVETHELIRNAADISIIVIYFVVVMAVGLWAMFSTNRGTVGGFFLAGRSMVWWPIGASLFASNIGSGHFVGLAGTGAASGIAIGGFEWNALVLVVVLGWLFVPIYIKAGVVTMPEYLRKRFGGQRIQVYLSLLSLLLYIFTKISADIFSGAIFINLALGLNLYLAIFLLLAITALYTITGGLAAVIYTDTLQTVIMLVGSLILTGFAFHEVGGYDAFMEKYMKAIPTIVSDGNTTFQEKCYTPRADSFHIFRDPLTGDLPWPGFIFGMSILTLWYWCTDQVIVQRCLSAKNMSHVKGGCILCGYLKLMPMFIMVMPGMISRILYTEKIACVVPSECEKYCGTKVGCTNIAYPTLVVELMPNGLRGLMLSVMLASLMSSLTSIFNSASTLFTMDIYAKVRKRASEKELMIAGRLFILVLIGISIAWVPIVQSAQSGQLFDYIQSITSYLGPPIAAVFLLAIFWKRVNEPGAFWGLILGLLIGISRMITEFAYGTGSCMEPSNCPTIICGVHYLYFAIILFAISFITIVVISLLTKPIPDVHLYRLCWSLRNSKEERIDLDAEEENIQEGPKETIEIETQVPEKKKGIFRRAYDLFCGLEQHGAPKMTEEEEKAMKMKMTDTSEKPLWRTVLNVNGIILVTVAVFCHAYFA
Text: as §1, §2

## COc1ccc(Cc2cc([C@@H]3O[C@H](SC)[C@@H](O)[C@H](O)[C@H]3O)ccc2Cl)cc1 [LP-925219]
[1]; DKO mice, single oral dose 1, 10 or 60 mg/kg, vs vehicle
  24-h UGE: not significantly increased
[1]; DKO mice, two oral 60 mg/kg doses (8 am, 6 pm), vs vehicle
  24-h UGE: not significantly increased
[1]; SGLT1 KO mice, single oral dose 1 mg/kg
  24-h UGE: almost maximal
[1]; SGLT1 KO mice, single oral dose, all higher doses (10, 60 mg/kg)
  24-h UGE: maximal
[1]; SGLT1 KO mice, two oral 60 mg/kg doses (8 am, 6 pm)
  24-h UGE: maximally increased
[1]; WT mice, single oral dose 1 mg/kg, vs vehicle
  24-h UGE: did not show a significant response
[1]; WT mice, single oral dose 60 mg/kg, maximal = vehicle-treated DKO
  24-h UGE: 68 ± 15 % of maximal
[1]; WT mice, two oral 60 mg/kg doses (8 am, 6 pm)
  24-h UGE: 90 ± 17 % of maximal
[2]
  IC50: 2.1 ± 0.5 nM
[3]
  IC50: 15.9 ± 4.2 nM
